Consider 28 compounds from patent US9458092B2, “α-Substituted glycinamide derivative” (KISSEI PHARMACEUTICAL CO., LTD., priority 2013, dated 2016).

Experiment [1] relates to overactive bladder induced by acetic acid. In words: Confirmation test of elongation action of micturition interval of overactive bladder induced by acetic acid. The experiment is classed as in vivo, female SD rats. Conditions: Rattus norvegicus, iv, interval before administration = 100%. Here is the method: Urethane (sigma) was dissolved into pure water by 25% w/v, and female SD rats were anesthetized with 1.25 g/kg urethane by subcutaneous administration. Cannulae were placed in femoral vein and bladder, and the bladder cannula was connected to both a syringe pump and a pressure transducer. Detrusor overactivity was induced by intravesical infusion of 0.25% acetic acid in saline at a rate of 3.6 mL/h, and intravesical pressure was monitored via pressure transducer concurrently. Test compounds were dissolved into a mixture of dimethylacetamide and saline (20:80), and were administered via the femoral vein. When an average of the three micturition interval before administration was taken as 100%, an average of the three micturition interval after administration was calculated as Elongation of micturition interval (%) Dose and results are shown in tables 46 and 47.

The next experiment deals with TRPM8 (Rattus norvegicus, UniProt Q8R455). In words: Confirmation test of inhibitory effects on icilin-induced wet-dog shakes. Format: in vivo, female SD rats. Also noted: test compounds were orally administered to female SD rats; from tissue; host or cells: whole animal (female SD rats), endogenous channel. The following applies: icilin 1 mg/kg i.p. after 1 hour, shakes counted for 5 minutes. On the procedure:
Test compounds were dissolved in dimethylacetamide (wako), and 0.5% methylcellulose solution (wako) was added to make the solution or suspension containing 5% of dimethylacetamide. At a dose of 3 or 10 mg/kg/5 mL of test compounds were orally administered to female SD rats. After 1 hour, wet-dog shakes were induced by the intrapenitoneal injection of icilin (1 mg/kg) which was dissolved in polyethylene glycol 400 (wako). From 5 minutes after the administration of icilin, wet-dog shakes were counted for 5 minutes. For control example, vehicle (a mixture of dimethylacetamide (wako): 0.5% methylcellulose (wako)=5:95) was administrated similarly, and the number of wet-dog shakes was counted in the same manner. A percent inhibition of wet-dog shakes by test compound was calculated from the following formula: [1-(test compound wet-dog shake count/vehicle wet-dog shake count)]×100.

[2] abbreviates: 1 mg/kg/2 ml via the femoral vein.
Setting [3] is: 1 mg/kg/ml via the femoral vein.

Sequence of TRPM8 (Q8R455 whole entry): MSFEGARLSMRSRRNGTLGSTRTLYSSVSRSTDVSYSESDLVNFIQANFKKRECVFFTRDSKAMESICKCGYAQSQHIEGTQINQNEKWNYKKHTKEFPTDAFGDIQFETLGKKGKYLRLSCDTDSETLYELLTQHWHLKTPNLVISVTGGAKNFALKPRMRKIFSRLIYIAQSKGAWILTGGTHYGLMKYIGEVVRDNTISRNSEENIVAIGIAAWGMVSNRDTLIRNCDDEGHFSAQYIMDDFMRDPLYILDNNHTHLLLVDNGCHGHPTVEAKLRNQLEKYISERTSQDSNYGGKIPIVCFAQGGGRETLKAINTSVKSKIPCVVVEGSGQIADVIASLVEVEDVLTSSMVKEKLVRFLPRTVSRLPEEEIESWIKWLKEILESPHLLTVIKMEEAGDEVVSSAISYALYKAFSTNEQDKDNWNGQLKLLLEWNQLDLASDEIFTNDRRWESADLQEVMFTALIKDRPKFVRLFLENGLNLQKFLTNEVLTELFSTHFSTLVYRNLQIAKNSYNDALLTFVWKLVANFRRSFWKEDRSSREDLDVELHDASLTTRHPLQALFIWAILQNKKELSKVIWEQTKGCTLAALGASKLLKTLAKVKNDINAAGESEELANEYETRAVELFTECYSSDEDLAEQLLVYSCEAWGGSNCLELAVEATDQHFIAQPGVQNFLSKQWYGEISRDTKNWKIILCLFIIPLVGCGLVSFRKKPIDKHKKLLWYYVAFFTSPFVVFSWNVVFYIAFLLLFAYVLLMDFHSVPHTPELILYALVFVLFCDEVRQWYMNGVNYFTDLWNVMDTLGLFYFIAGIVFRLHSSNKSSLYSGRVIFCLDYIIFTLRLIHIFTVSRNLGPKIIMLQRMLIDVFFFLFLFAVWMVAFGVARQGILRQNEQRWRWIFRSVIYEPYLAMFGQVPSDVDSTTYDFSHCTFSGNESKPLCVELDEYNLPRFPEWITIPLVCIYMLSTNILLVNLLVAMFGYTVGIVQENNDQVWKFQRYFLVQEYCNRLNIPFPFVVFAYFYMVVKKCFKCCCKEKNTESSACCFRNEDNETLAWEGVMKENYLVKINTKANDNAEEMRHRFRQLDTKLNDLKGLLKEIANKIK

`COc1ccc2c(c1)[C@H](N(C(=O)c1ccccc1)[C@@H](C(N)=O)c1ccccc1)CC2` [Example 2-4LP, N-[(R)-Carbamoylphenylmethyl]-N-[(R)-6-methoxyindan-1-yl]benzamide] showed a response vs control in vivo at 1 mg/kg in experiment [1] (setting [2]) of 156%. Also, the “% inhibition of Wet-Dog Shake” value on TRPM8 (dose 10 mg/kg orally) is 79%.

`Cc1ncsc1C(=O)N([C@@H]1CCc2c(F)cc(Cl)cc21)[C@@H](C(N)=O)c1ccccc1` [Example 15LP, N-[(R)-carbamoylphenylmethyl]-N-[(R)-6-chloro-4-fluoroindan-1-yl]-4-methylthiazole-5-carboxamide] gave a response vs control in vivo at 1 mg/kg in experiment [1] (setting [3]) of 188%. Besides, the “% inhibition of Wet-Dog Shake” value on TRPM8 (dose 3 mg/kg orally) stood at 100%. Turning to `NC(=O)[C@@H](c1ccccc1)N(C(=O)c1ccccc1)[C@@H]1CCc2ccc(C3CC3)cc21` [Example 2-5LP, N-[(R)-carbamoylphenylmethyl]-N-[(R)-6-cyclopropylindan-1-yl]benzamide], the response vs control in vivo at 1 mg/kg in experiment [1] (setting [2]) stood at 177%. Besides, the “% inhibition of Wet-Dog Shake” value at TRPM8 (dose 10 mg/kg orally) is 89%. In experiment [1] (setting [2]), `NC(=O)[C@@H](c1ccccc1)N(C(=O)c1cncc(F)c1)[C@@H]1CCc2c(F)cc(Cl)cc21` [Example 2-86LP, N-[(R)-carbamoylphenylmethyl]-N-[(R)-6-chloro-4-fluoroindan-1-yl]-5-fluoronicotinamide] displayed a response vs control in vivo at 1 mg/kg of 145%. Besides, the “% inhibition of Wet-Dog Shake” value on TRPM8 (dose 10 mg/kg orally) came out at 73%. Compound `COc1ncccc1C(=O)N([C@@H]1CCc2c(F)cc(Cl)cc21)[C@@H](C(N)=O)c1ccccc1` [Example 11, N-[(R)-carbamoylphenylmethyl]-N-[(R)-6-chloro-4-fluoroindan-1-yl]-2-methoxynicotinamide] had a response vs control in vivo at 1 mg/kg in experiment [1] (setting [3]) of 162%. The “% inhibition of Wet-Dog Shake” value at TRPM8 (dose 3 mg/kg orally) was 100%. In the case of `NC(=O)[C@@H](c1ccccc1)N(C(=O)c1ccccc1)[C@@H]1CCc2ccc(Cl)cc21` [Example 2-2LP, N-[(R)-Carbamoylphenylmethyl]-N-[(R)-6-chloroindan-1-yl]benzamide], in experiment [1] (setting [2]), the response vs control in vivo at 1 mg/kg is 221%. At TRPM8 (dose 10 mg/kg orally), the “% inhibition of Wet-Dog Shake” value worked out at 100%. In turn, `NC(=O)[C@@H](c1cccnc1)N(C(=O)c1ccccc1O)[C@@H]1CCc2c(F)cc(Cl)cc21` [Example 19-1LP, N-[(R)-carbamoylpyridin-3-ylmethyl]-N-[(R)-6-chloro-4-fluoroindan-1-yl]-2-hydroxybenzamide] came in with a response vs control in vivo at 1 mg/kg in experiment [1] (setting [3]) of 178%. As to `NC(=O)[C@@H](c1cccnc1)N(C(=O)c1cccc2c1OCO2)[C@@H]1CCc2c(F)cc(Cl)cc21` [Example 2-172LP, N-[(R)-carbamoylpyridin-3-ylmethyl]-N-[(R)-6-chloro-4-fluoroindan-1-yl]benzo[1,3]dioxole-4-carboxamide], the “% inhibition of Wet-Dog Shake” value at TRPM8 (dose 3 mg/kg orally) came to 43%. Turning to `NC(=O)[C@@H](c1ccccc1)N(C(=O)c1cccnc1)[C@@H]1CCc2c(F)cccc21` [Example 2-56LP, N-[(R)-carbamoylphenylmethyl]-N-[(R)-4-fluoroindan-1-yl]nicotinamide], the “% inhibition of Wet-Dog Shake” value at TRPM8 (dose 10 mg/kg orally) is 50%.

Consider `COc1ccc2c(c1)[C@H](N(C(=O)c1cccnc1)[C@@H](C(N)=O)c1ccccc1)CC2` [Example 1-6, N-[(R)-Carbamoylphenylmethyl]-N-[(R)-6-methoxyindan-1-yl]nicotinamide], for which the “% inhibition of Wet-Dog Shake” value on TRPM8 (dose 10 mg/kg orally) worked out at 64%. As to `NC(=O)[C@@H](c1ccccc1)N(C(=O)c1ccccc1O)[C@@H]1COc2ccc(Cl)cc21` [Example 4-2, N-[(R)-carbamoylphenylmethyl]-N-[(S)-5-chloro-2,3-dihydrobenzofuran-3-yl]-2-hydroxybenzamide], at TRPM8 (dose 10 mg/kg orally), the “% inhibition of Wet-Dog Shake” value was determined as 86%. With `NC(=O)[C@@H](c1ccccc1)N(C(=O)c1cccnc1N)[C@@H]1CCc2ccc(OC(F)F)cc21` [Example 2-27LP, 2-amino-N-[(R)-carbamoylphenylmethyl]-N-[(R)-6-difluoromethoxyindan-1-yl]nicotinamide], on TRPM8 (dose 10 mg/kg orally), the “% inhibition of Wet-Dog Shake” value was found to be 95%. Consider `Cc1cnccc1C(=O)N([C@@H]1CCc2c(F)cc(Cl)cc21)[C@@H](C(N)=O)c1ccccc1` [Example 2-167LP, N-[(R)-carbamoylphenylmethyl]-N-[(R)-6-chloro-4-fluoroindan-1-yl]-3-methylisonicotinamide], for which the “% inhibition of Wet-Dog Shake” value at TRPM8 (dose 3 mg/kg orally) turned out to be 64%.

`NC(=O)[C@@H](c1ccccc1)N(C(=O)c1cccnc1Cl)[C@@H]1CCc2c(F)cc(Cl)cc21` [Example 2-93LP, N-[(R)-carbamoylphenylmethyl]-2-chloro-N-[(R)-6-chloro-4-fluoroindan-1-yl]nicotinamide]: the “% inhibition of Wet-Dog Shake” value on TRPM8 (dose 3 mg/kg orally) is listed as 100%. On to `CN(C)c1cccc([C@H](C(N)=O)N(C(=O)c2ccccc2O)[C@@H]2CCc3c(F)cc(Cl)cc32)c1` [Example 19-6LP, N-[(R)-carbamoyl-(3-dimethylaminophenyl)methyl]-N-[(R)-6-chloro-4-fluoroindan-1-yl]-2-hydroxybenzamide], for which the “% inhibition of Wet-Dog Shake” value at TRPM8 (dose 10 mg/kg orally) came to 99%.

In the case of `NC(=O)[C@@H](c1ccccc1)N(C(=O)c1cccnc1N)[C@@H]1CCc2ccc(Cl)cc21` [Example 2-33LP, 2-amino-N-[(R)-carbamoylphenylmethyl]-N-[(R)-6-chloroindan-1-yl]nicotinamide], the “% inhibition of Wet-Dog Shake” value at TRPM8 (dose 10 mg/kg orally) is listed as 98%. Consider `NC(=O)[C@@H](c1ccccc1)N(C(=O)c1cncs1)[C@@H]1CCc2ccc(Cl)cc21` [Example 2-71LP, N-[(R)-carbamoylphenylmethyl]-N-[(R)-6-chloroindan-1-yl]thiazole-5-carboxamide], for which the “% inhibition of Wet-Dog Shake” value on TRPM8 (dose 10 mg/kg orally) was 83%. For the compound `Cc1ncccc1C(=O)N([C@@H]1CCc2c(F)cc(Cl)cc21)[C@@H](C(N)=O)c1cccc(O)c1` [Example 2-168LP, N-[(R)-carbamoyl-(3-hydroxyphenyl)methyl]-N-[(R)-6-chloro-4-fluoroindan-1-yl]-2-methylnicotinamide], at TRPM8 (dose 3 mg/kg orally), the “% inhibition of Wet-Dog Shake” value stood at 36%. On to `N#Cc1ccc2c(c1)[C@H](N(C(=O)c1ccccc1O)[C@@H](C(N)=O)c1ccccc1)CC2` [Example 3-2, N-[(R)-carbamoylphenylmethyl]-N-[(R)-6-cyanoindan-1-yl]-2-hydroxybenzamide], for which the “% inhibition of Wet-Dog Shake” value on TRPM8 (dose 10 mg/kg orally) amounted to 73%. On to `NC(=O)[C@@H](c1ccccc1)N(C(=O)c1cccc2c1OCO2)[C@@H]1CCc2c(F)cc(Cl)cc21` [Example 2-173LP, N-[(R)-carbamoylphenylmethyl]-N-[(R)-6-chloro-4-fluoroindan-1-yl]benzo[1,3]dioxole-4-carboxamide], for which the “% inhibition of Wet-Dog Shake” value at TRPM8 (dose 3 mg/kg orally) came to 99%. As to `Cc1ncsc1C(=O)N([C@@H]1CCc2c(F)cc(F)cc21)[C@@H](C(N)=O)c1ccccc1` [Example 2-132LP, N-[(R)-carbamoylphenylmethyl]-N-[(R)-4,6-difluoroindan-1-yl]-4-methylthiazole-5-carboxamide], the “% inhibition of Wet-Dog Shake” value at TRPM8 (dose 3 mg/kg orally) amounted to 49%. Regarding `Cc1ncccc1C(=O)N([C@@H]1CCc2c(F)cc(Cl)cc21)[C@@H](C(N)=O)c1cccc(F)c1` [Example 2-161LP, N-[(R)-carbamoyl-(3-fluorophenyl)methyl]-N-[(R)-6-chloro-4-fluoroindan-1-yl]-2-methylnicotinamide], the “% inhibition of Wet-Dog Shake” value at TRPM8 (dose 3 mg/kg orally) worked out at 42%. For the compound `Cc1ncccc1C(=O)N([C@@H]1CCc2ccc(Cl)cc21)[C@@H](C(N)=O)c1ccccc1` [Example 2-137LP, N-[(R)-carbamoylphenylmethyl]-N-[(R)-6-chloroindan-1-yl]-2-methylnicotinamide], the “% inhibition of Wet-Dog Shake” value on TRPM8 (dose 3 mg/kg orally) came to 53%.

Consider `Cc1cccnc1C(=O)N([C@@H]1CCc2c(F)cc(Cl)cc21)[C@@H](C(N)=O)c1ccccc1` [Example 2-152LP, N-[(R)-carbamoylphenylmethyl]-N-[(R)-6-chloro-4-fluoroindan-1-yl]-3-methylpyridine-2-carboxamide], for which the “% inhibition of Wet-Dog Shake” value on TRPM8 (dose 3 mg/kg orally) turned out to be 44%. Regarding `NC(=O)[C@@H](c1cccnc1)N(C(=O)c1ccccc1Cl)[C@@H]1CCc2c(F)cc(Cl)cc21` [Example 2-97LP, N-[(R)-carbamoylpyridin-3-ylmethyl]-2-chloro-N-[(R)-6-chloro-4-fluoroindan-1-yl]benzamide], the “% inhibition of Wet-Dog Shake” value at TRPM8 (dose 3 mg/kg orally) stood at 35%.

Turning to `COc1cc(F)c2c(c1)[C@H](N(C(=O)c1cccnc1)[C@@H](C(N)=O)c1ccccc1)CC2` [Example 2-39LP, N-[(R)-carbamoylphenylmethyl]-N-[(R)-4-fluoro-6-methoxyindan-1-yl]nicotinamide], at TRPM8 (dose 10 mg/kg orally), the “% inhibition of Wet-Dog Shake” value is reported as 98%.

Take `CNc1ncccc1C(=O)N([C@@H]1CCc2c(F)cc(Cl)cc21)[C@@H](C(N)=O)c1ccccc1` [Example 2-107LP, N-[(R)-carbamoylphenylmethyl]-N-[(R)-6-chloro-4-fluoroindan-1-yl]-2-(methylamino)nicotinamide]: the “% inhibition of Wet-Dog Shake” value on TRPM8 (dose 3 mg/kg orally) worked out at 68%. On to `COc1ncccc1C(=O)N([C@@H]1CCc2c(F)cc(Cl)cc21)[C@@H](C(N)=O)c1cccnc1` [Example 2-180LP, N-[(R)-carbamoylpyridin-3-ylmethyl]-N-[(R)-6-chloro-4-fluoroindan-1-yl]-2-methoxynicotinamide], for which the “% inhibition of Wet-Dog Shake” value on TRPM8 (dose 3 mg/kg orally) worked out at 32%.
